“Also recorded” adds a separate entry of the source. Values belong to the substance of their own block, whether it stands above or below them.
Tests used:
Thrombin [1] = test: Recombinant human Thrombin at 5U/ml
Neutrophil elastase = Neutrophil elastase at 30 nM; details: human, up to 12 min
MMP-13 [2] = test: Recombinant human catalytic domain MMP-13 at 30nM
[3] = human tissue homogenate (healthy and fibrotic lung tissue)
plasmin [4] = test: plasmin
MMP-2 [5] = test: Recombinant human catalytic domain MMP-2 at 30nM
[6] = healthy (homogenised) human lung tissue
thrombin [7] = test: thrombin (Sigma Aldrich) (5 U ml^–1) in MMP buffer (10 mM CaCl2, Tris-HCl, NaCl, pH 7.5); details: human, up to 60 min
MMP = test: incubation with MMP (which MMP is not given); details: up to 10 min
MMP-2 [8] = test: recombinant MMP enzymes (active domains), 30 nM, in MMP buffer; details: up to 60 min
Factor Xa = Factor Xa (Sigma Aldrich) (500 nM) in MMP buffer; details: up to 60 min
[9] = excised human carotid (atherosclerotic) plaque, sliced in half lengthwise, in a well with probe solution; details: up to 60 min
MMP-9 = test: recombinant MMP enzymes (active domains), 30 nM, in MMP buffer; details: human, up to 60 min
[10] = platelet rich plasma (PRP) collected from the LPS murine model
MMP-9 + Thrombin = MMP-9 + Thrombin together in MMP buffer; details: human, up to 60 min
MMP-13 [11] = test: recombinant MMP enzymes (active domains), 30 nM, in MMP buffer; details: up to 60 min
Plasmin [12] = test: Plasmin (Sigma Aldrich) (30 nM) in MMP buffer; details: up to 60 min
[13] = lavage fluid collected from the LPS murine model

Substance: -G-P-K-G-L-K-G-
cleaved bond (MMP-13 [2]): G-L
not cleaved (Thrombin [1]): not cleaved with Thrombin
cleaved bond [3]: G-L
cleaved bond (plasmin [4]): K-G
not cleaved (neutrophil lysate): not cleaved with Neutrophil lysate
cleaved bond (MMP-2 [5]): G-L
not cleaved (Neutrophil elastase): stable to Elastase

Substance: -P-Cha-G-M-K-G-
not cleaved (Thrombin [1]): Thrombin did not cleave any of the sequences
not cleaved (Neutrophil elastase): remained intact

Substance: -P-Cha-G-M-K-ßA-G-
not cleaved (Thrombin [1]): Thrombin did not cleave any of the sequences
not cleaved (Neutrophil elastase): remained intact

Substance: -P-Cha-G-M-W-G-
not cleaved (Thrombin [1]): Thrombin did not cleave any of the sequences
not cleaved (Neutrophil elastase): remained intact

Substance: -P-Cha-G-M-Y-G-
not cleaved (Thrombin [1]): Thrombin did not cleave any of the sequences
not cleaved (Neutrophil elastase): remained intact

Substance: -P-F-G-Ile-K-ßA-
not cleaved (Thrombin [1]): Thrombin did not cleave any of the sequences
cleaved bond (Neutrophil elastase): I-K

Substance: PFGNleKA attached to the hydrophilic tail -[PEG2-(D)K]3-NH2
not cleaved [6]: good solubility and stability as confirmed by MALDI TOF MS and HPLC analysis

Substance: –NleWPRGWR(D)L– | –PFG(D)NleKβA– | –K-PEG2–
not cleaved (MMP): not activated by their target enzymes

More lines, main results first:

cleaved bond (Neutrophil elastase): I-K
Substance: -G-P-K-G-Ile-K-G-
not cleaved (Thrombin [1]): Thrombin did not cleave any of the sequences

not cleaved (Neutrophil elastase): remained intact
Substance: -P-Cha-G-M-F-G-
not cleaved (Thrombin [1]): Thrombin did not cleave any of the sequences

not cleaved (Neutrophil elastase): remained intact
Substance: -P-Cha-G-M-H-G-
not cleaved (Thrombin [1]): Thrombin did not cleave any of the sequences

not cleaved (Neutrophil elastase): remained intact
Substance: -P-Cha-G-M-Y(Me)-G-
not cleaved (Thrombin [1]): Thrombin did not cleave any of the sequences

not cleaved (Neutrophil elastase): remained intact
Substance: -P-F-G-L-K-ßA-
not cleaved (Thrombin [1]): Thrombin did not cleave any of the sequences

not cleaved (Neutrophil elastase): remained intact
Substance: -P-F-G-M-K-ßA-
not cleaved (Thrombin [1]): Thrombin did not cleave any of the sequences

cleaved bond (MMP-13 [2]): G-Nle
not cleaved (Thrombin [1]): not cleaved with Thrombin
cleaved bond [3]: G-Nle
not cleaved (plasmin [4]): totally plasmin resistant
not cleaved (neutrophil lysate): not cleaved with Neutrophil lysate
cleaved bond (MMP-2 [5]): G-Nle
not cleaved (Neutrophil elastase): stable to Elastase
Substance: -P-F-G-Nle-K-ßA-

not cleaved (thrombin [7]): not activated by their target enzymes
Substance: –NleWP(D)RGWR(D)L– | –PFGNleKβA– | –K-PEG2–

cleaved bond (MMP-2 [8]): Gly-Nle
cleaved bond [9]: Arg-Gly; also recorded: Gly-Nle
cleaved bond (thrombin [7]): Arg-Gly
cleaved bond (MMP-9): Gly-Nle
cleaved bond (MMP-9 + Thrombin): Arg-Gly; also recorded: Gly-Nle
cleaved bond (MMP-13 [11]): Gly-Nle
Substance: –NleWPRGWR(D)L– | –PFGNleKβA– | –K-PEG2–
not cleaved (Factor Xa): completely plasmin and Factor Xa resistant
not cleaved [10]: not cleaved by murine proteolytic (MMP and Thrombin) enzymes
not cleaved (Plasmin [12]): completely plasmin and Factor Xa resistant
not cleaved [13]: not cleaved by murine proteolytic (MMP and Thrombin) enzymes

— PMC6238727 (2018)
